Tested on: cytokines in mouse cornea
Assay: Cytokines in corneal lysates after intrastromal injection (MILLIPLEX MAP mouse cytokine assay)
Format: in vivo
Details: intrastromal 0.5 μl, 10^−4, 10^−5, 10^−6 M; 24 and 48 hours
Procedure: Corneas were injected intrastromally with 0.5 μl of peptide 95-122 at a final concentration of 10^−4 M, 10^−5 M, and 10^−6 M and vehicle (saline) control. Corneas were collected and flash frozen at 24 hours and 48 hours. Corneal lysates were analyzed for cytokines using the MILLIPLEX® MAP mouse cytokine assay for IL-7(A), IL-15 (B), IFN-γ (C), MIP1-α (D) (EMD Millipore Corp., Billerica, Mass.). The means of independent experimental values are shown ±SEM. ***P<0.001, **P<0.01, *P<0.05 by unpaired t-test as compared to vehicle treated controls. […] Corneas were injected intrastromally with 0.5 μl of peptide 95-122 at a final concentration of 10^−4 M, 10^−5 M, and 10^−6 M and vehicle (saline) control. Corneas were collected and flash frozen at 24 hours and 48 hours. Corneal lysates were analyzed for cytokines using the MILLIPLEX® MAP mouse cytokine assay for MIP1-β (EMD Millipore Corp., Billerica, Mass.). **P<0.01, *P<0.05 by unpaired t-test as compared to vehicle treated controls. […] Corneas were injected intrastromally with 0.5 μl of peptide 95-122 at a final concentration of 10^−4 M, 10^−5 M, and 10^−6 M and vehicle (saline) control. Corneas were collected and flash frozen at 24 hours and 48 hours. Corneal lysates were analyzed for cytokines using the MILLIPLEX® MAP mouse cytokine assay for KC (A), IL-1β (B), and GM-CSF (C) (EMD Millipore Corp., Billerica, Mass.). **P<0.01, *P<0.05 by unpaired t-test as compared to vehicle treated controls.

LDREANLTSSVTILPLPLQNATVEAGTR (listed as Homo sapiens) [Peptide 95-122]
significantly increases: GM-CSF in corneal lysates | IFN-γ in corneal lysates | IL-1β in corneal lysates | IL-7 in corneal lysates | IL-15 in corneal lysates | KC in corneal lysates | MIP1-13 in corneal lysates | MIP1-α in corneal lysates
